Broadly, the IC50 is the point on the concentration scale where inhibition reaches its midpoint.

The results in this text go back to patent US20110112110A1, “ANTIPROLIFERATIVE COMPOUNDS AND THERAPEUTIC USES THEREOF” (UNIVERSITA' DEGLISTUDI DI MILANO- BICOCCA, priority 2008, published 2011).

T2 sequence (Q9UM73 19-1620): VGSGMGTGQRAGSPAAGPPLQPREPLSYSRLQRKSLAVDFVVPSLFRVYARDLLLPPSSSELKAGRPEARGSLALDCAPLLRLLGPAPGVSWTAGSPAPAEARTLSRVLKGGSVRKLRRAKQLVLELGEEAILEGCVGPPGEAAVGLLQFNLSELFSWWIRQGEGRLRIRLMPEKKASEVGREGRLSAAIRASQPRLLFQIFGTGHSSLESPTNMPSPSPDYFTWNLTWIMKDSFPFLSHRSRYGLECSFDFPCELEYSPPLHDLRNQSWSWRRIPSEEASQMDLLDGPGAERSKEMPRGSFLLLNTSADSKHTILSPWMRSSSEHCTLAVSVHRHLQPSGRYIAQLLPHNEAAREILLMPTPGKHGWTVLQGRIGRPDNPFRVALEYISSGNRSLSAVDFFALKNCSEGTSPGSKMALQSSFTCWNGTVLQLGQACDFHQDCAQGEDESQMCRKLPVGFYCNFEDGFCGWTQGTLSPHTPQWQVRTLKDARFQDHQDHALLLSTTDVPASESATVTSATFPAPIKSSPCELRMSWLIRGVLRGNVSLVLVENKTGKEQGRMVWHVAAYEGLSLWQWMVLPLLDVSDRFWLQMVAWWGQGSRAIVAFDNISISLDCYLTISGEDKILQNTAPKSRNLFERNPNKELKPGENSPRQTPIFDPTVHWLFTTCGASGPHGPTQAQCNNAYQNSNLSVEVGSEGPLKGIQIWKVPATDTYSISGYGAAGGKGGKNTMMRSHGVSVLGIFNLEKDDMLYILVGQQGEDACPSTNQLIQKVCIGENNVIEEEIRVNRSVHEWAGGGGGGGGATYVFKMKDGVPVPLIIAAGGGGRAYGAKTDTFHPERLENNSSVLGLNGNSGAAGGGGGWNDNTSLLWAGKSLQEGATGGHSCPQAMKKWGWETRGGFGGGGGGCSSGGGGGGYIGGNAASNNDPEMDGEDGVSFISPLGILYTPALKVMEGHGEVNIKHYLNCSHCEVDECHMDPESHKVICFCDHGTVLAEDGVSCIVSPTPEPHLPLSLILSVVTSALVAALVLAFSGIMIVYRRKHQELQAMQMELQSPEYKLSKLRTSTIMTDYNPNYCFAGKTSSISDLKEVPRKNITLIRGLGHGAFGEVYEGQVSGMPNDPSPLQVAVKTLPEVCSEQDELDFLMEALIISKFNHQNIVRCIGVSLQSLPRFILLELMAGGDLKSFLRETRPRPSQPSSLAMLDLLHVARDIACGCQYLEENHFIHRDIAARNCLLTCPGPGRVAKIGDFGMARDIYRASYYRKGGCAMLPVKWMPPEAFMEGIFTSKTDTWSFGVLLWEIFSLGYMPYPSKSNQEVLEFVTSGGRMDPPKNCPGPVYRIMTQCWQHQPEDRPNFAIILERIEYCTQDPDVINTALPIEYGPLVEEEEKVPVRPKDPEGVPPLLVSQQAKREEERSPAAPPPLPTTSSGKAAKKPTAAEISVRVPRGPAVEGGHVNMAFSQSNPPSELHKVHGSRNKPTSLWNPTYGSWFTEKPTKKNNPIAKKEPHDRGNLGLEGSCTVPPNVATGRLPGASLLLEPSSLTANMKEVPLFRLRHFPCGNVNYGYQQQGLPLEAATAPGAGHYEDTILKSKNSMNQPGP

One assay addresses T1, Recombinant Abl T315I (Homo sapiens, UniProt P00519, T315I).
T1 construct: His tag (from pBlueBacHis2C vector); made in house; host or cells: Sf9 insect cells, baculovirus
Nature of the assay: ELISA-based in vitro kinase assay (Abl T315I mutant kinase inhibitory activity). In kind it is biochemical. As to conditions: purified Abl T315I, 0.3 mM ATP, peptide substrate. How it is done:
(§1) Method: ELISA-Based In Vitro Kinase Assay
Recombinant Abl T315I protein was expressed in Sf9 cells using the pBlueBacHis2C baculovirus expression vector. Abl T315I was purified using an anion exchange Fast Flow Q-sepharose column (Amersham-Pharmacia Biotech) followed by HiTrap™-nickel affinity column (Amersham-Pharmacia Biotech). Purified Abl T3151 was used in the ELISA-based kinase assay to screen inhibitors as described above. The kinase reaction was performed in the presence of 50 mM Tris pH 7.5, 1 mM MnCl2, 5 mM MgCl2, 0.3 mM ATP, peptide substrate ([…]) and purified Abl T315I.
On the technique in general: An ELISA detects its analyte on a solid surface through an enzyme-linked reagent.
For `O=C(Nc1ncc(-c2ccc3c(c2)Cc2ccccc2-3)s1)c1ccccc1I` [r87, N-(5-(9H-fluoren-7-yl)thiazol-2-yl)-2-iodobenzamide], the IC50 was 6.43 ± 0.43 µM.

With `CC(=O)Nc1ncc(-c2ccc(-c3cnc(NC(C)=O)[nH]3)cc2)[nH]1` [r114, N,N′-(5,5′-(1,4-phenylene)bis(1H-imidazole-5,2-diyl))diacetamide], the IC50 came to 2.1 µM.

Another assay addresses T2, Recombinant ALK kinase (Homo sapiens, UniProt Q9UM73).
T2 construct: His tag (from pBlueBacHis2C vector); made in house; host or cells: insect cells, baculovirus
Nature of the assay: ELISA-based in vitro kinase assay (ALK kinase inhibitory activity). In kind it is biochemical.
Conditions: not given
How it is done: as §1
Recombinant ALK kinase was expressed in […] insect cells using the pBlueBacHis2C baculovirus vector system and purified using an anion exchange Fast Flow Q-sepharose column (Amersham-Pharmacia Biotech) followed by HiTrap™-nickel affinity column (Amersham-Pharmacia Biotech). Purified ALK protein was used to screen inhibitors in the ELISA-based kinase assay. […] Wells were then washed with 200 μl of wash buffer (PBS-Tween 0.05%) and left to dry for at least 2 hours at 37° C. The kinase reaction was performed in the presence of 50 mM Tris pH 7.5, 5 mM MnCl2, 5 mM MgCl2, 0.3 mM ATP and purified rALK in a total volume of 100 μl/well at 30° C. for 15 minutes. For inhibitor testing the reaction mix was preincubated with the inhibitor or solvent control for 10 mins at room temperature before transferring to the ELISA plate. After the reaction wells were washed 5 times with 200 μl of wash buffer. Phosphorylated peptide was detected using 100 μl/well of a mouse monoclonal anti-phosphotyrosine antibody (clone 4G10 UpstateBiotech Ltd) diluted 1:2000 in PBS+4% BSA. After 30 minutes incubation at room temperature the antibody was removed and wells were washed as described above. 100 μl of a secondary antibody (anti-mouse IgG, Horseradish Peroxidase linked whole antibody, Amersham Pharmacia Biotech) diluted 1:1000 in PBS+4% BSA was added to each well and the plate was incubated again for 30 minutes at room temperature before washing as above. The plate was developed using 100 μl/well TMB Substrate Solution (Endogen) and the reaction was stopped by adding an equal volume of H2SO4 0.36 M. Finally, the absorbance was read at 450 nm using an Ultrospec® 300 spectrophotometer (Amersham-Pharmacia Biotech).
On to `O=C(Nc1ncc(-c2ccc3c(c2)Cc2ccccc2-3)s1)c1ccccc1I` [r87, N-(5-(9H-fluoren-7-yl)thiazol-2-yl)-2-iodobenzamide], for which the IC50 amounted to 4.3 ± 0.3 µM.

`CC(=O)Nc1ncc(-c2ccc(-c3cnc(NC(C)=O)[nH]3)cc2)[nH]1` [r114, N,N′-(5,5′-(1,4-phenylene)bis(1H-imidazole-5,2-diyl))diacetamide]: the IC50 turned out to be 0.75 ± 0.13 µM.

For `CN1CCN(Cc2ccc(C(=O)Nc3nc(-c4ccc(-c5csc(NC(=O)c6ccc(CN7CCN(C)CC7)cc6)n5)cc4)cs3)cc2)CC1` [r218, N,N′-(4,4′-(1,4-phenylene)bis(thiazolle-4,2-diyl))bis(4-((4-methylpiperazin-1-yl)methyl)benzamide)], the IC50 was found to be 1.3 ± 0.5 µM.

Still in this assay, the particulars now being: purified rALK, 0.3 mM ATP, ALK peptide substrate, 30° C. 15 minutes; read-out: IC50 values on ALK.
For `c1ccc2c(-c3ncc(-c4ccc(-c5cnc(-c6cccc7ccccc67)o5)cc4)o3)cccc2c1` [r19], the IC50 was 1.2 µM.

Turning to `Clc1ccc(-c2csc(-c3ccc(-c4csnn4)cc3)n2)cc1Cl` [r35], the IC50 came out at 7.7 ± 0.2 µM.

Turning to `c1cc(-c2nc(-c3ccc4c(c3)OCCCO4)cs2)ccc1-c1csnn1` [r36], the IC50 was found to be 27 µM.

Consider `COCCCNc1nc(-c2ccc(-c3ccccc3)cc2)cs1` [r43], for which the IC50 amounted to 27.3 µM.

With `O=S(=O)(Cc1ccco1)Cc1nc(-c2ccc(-c3ccccc3)cc2)cs1` [r48], the IC50 was determined as 1.6 ± 0.15 µM.

As for `O=C1Nc2ccc(Br)cc2/C1=N/Nc1nc(-c2ccc(-c3ccccc3)cc2)cs1` [r49], the IC50 worked out at 1.5 ± 0.17 µM.

Turning to `O=C(N/N=C/c1c[nH]c2ccccc12)c1cc(-c2ccc(-c3ccccc3)cc2)[nH]n1` [r66], the IC50 was 3.6 ± 0.5 µM.

`N#C/C(=C\c1cccs1)c1nc(-c2ccc(-c3ccccc3)cc2)cs1` [r67]: the IC50 is 4.7 ± 0.7 µM.

In the case of `Fc1ccc(-c2csc(-c3ccc(-c4csnn4)cc3)n2)cc1F` [r68], the IC50 is 3.1 ± 0.34 µM.

On to `Cc1ccc(-c2csc(-c3ccc(-c4csnn4)cc3)n2)c(C)c1` [r69], for which the IC50 was 9.3 ± 2.9 µM.

`Cc1ccc(-c2csc(-c3ccc(-c4csnn4)cc3)n2)cc1` [r70]: the IC50 was 5.5 ± 2.3 µM.

Turning to `O=[N+]([O-])c1ccc(-c2nc(-c3ccc(-c4csnn4)cc3)no2)cc1` [r75], the IC50 was found to be 8.8 ± 0.85 µM.

`Cc1csc(-c2ccc(-c3csnn3)cc2)n1` [r78]: the IC50 worked out at 103 µM.

`CC(C)(C)c1csc(-c2ccc(-c3csnn3)cc2)n1` [r79]: the concentration for half-maximal inhibition (IC50) came to 24 ± 1.5 µM.

Take `CCOC(=O)c1csc(-c2ccc(-c3csnn3)cc2)n1` [r80]: the IC50 stood at 48 µM.

Take `Cc1nc(-c2ccc(-c3csc(-c4cnccc4C(F)(F)F)n3)cc2)no1` [r81]: the IC50 was determined as 46.5 µM.

As to `c1ccc(-c2ccc(-c3csc(-c4ccncc4)n3)cc2)cc1` [r83], the IC50 worked out at 11.7 µM.

Turning to `Nc1nc(-c2ccc3c(c2)Cc2ccccc2-3)cs1` [r84], the IC50 was 11 ± 1.3 µM.

For the compound `c1ccc(-c2ccc(-c3csc(N4CCOCC4)n3)cc2)cc1` [r85], the IC50 came out at 16 ± 4.8 µM.

Turning to `CN1CCN(Cc2ccc(C(=O)Nc3nc(-c4ccc5c(c4)Cc4ccccc4-5)cs3)cc2)CC1` [r89], the IC50 came to 1.3 ± 0.2 µM.

`c1ccc(-c2ccc(-c3cncs3)nc2)nc1` [r113]: the IC50 turned out to be 57 ± 5 µM.

Regarding `Brc1ccccc1-c1ccc(-c2nccs2)nc1` [r116, 5-(2-bromophenyl)-2-(thiazol-2-yl)pyridine], the IC50 turned out to be 27 ± 1.6 µM.

Consider `Clc1cc(-c2cccnc2)ccc1-c1cncs1` [r120, 3-(3-Chloro-4-thiazol-5-yl-phenyl)-pyridine], for which the IC50 is 12 ± 1.2 µM.

For `Nc1nc(-c2ccc(-c3cccnc3)cn2)cs1` [r121], the concentration for half-maximal inhibition (IC50) turned out to be 42 ± 3.3 µM.

For `O=C(Nc1nc(-c2ccc(-c3cccnc3)cn2)cs1)c1ccccc1` [r122], the IC50 was 37 ± 2.7 µM.

With `O=C(Nc1nc(-c2ccc(-c3cccnc3)cn2)cs1)c1ccco1` [r124], the IC50 was found to be 11 ± 0.72 µM.

Regarding `CN1CCN(Cc2ccc(C(=O)Nc3ncc(-c4ccc(-c5cccnc5)cc4Cl)s3)cc2)CC1` [r127, N-[5-(2-Chloro-4-pyridin-3-yl-phenyl)-thiazol-2-yl]-4-(4-methyl-piperazin-1-ylmethyl)-benzamide], the 50% inhibitory concentration (IC50) was found to be 4.6 µM.

Consider `O=C(Nc1ncc(-c2ccc(-c3cccnc3)cc2Cl)s1)c1ccc(Br)o1` [r128, 5-Bromo-furan-2-carboxylic acid[5-(2-chloro-4-pyridin-3-yl-phenyl)-thiazol-2-yl]-amide], for which the IC50 was determined as 6.7 µM.

Turning to `Nc1nc(-c2ccc3c(c2)[nH]c2ccccc23)cs1` [r156, 4-(9H-Carbazol-2-yl)-thiazol-2-ylamine], the IC50 is 82 ± 9 µM.

Consider `O=C(Nc1nc(-c2ccc3c(c2)[nH]c2ccccc23)cs1)c1ccccc1` [r158, N-[4-(9H-Carbazol-2-yl)-thiazol-2-yl]-benzamide], for which the IC50 was found to be 10 ± 0.73 µM.

Consider `O=C(Nc1nc(-c2ccc3c(c2)[nH]c2ccccc23)cs1)c1ccc(-c2ccccc2)cc1` [r169], for which the IC50 was determined as 17 ± 1.4 µM.

In the case of `O=C(Nc1nc(-c2ccc3c(c2)[nH]c2ccccc23)cs1)c1ccc(Br)o1` [r170, 5-Bromo-furan-2-carboxylic acid[4-(9H-carbazol-2-yl)-thiazol-2-yl]-amide], the IC50 came out at 14 ± 1.6 µM.

For the compound `O=C(Nc1ccc(-c2ccc(-c3ncco3)nc2)cn1)c1ccc(Br)o1` [r200, 5-bromo-N-(5-(6-(oxazol-2-yl)pyridin-3-yl)pyridin-2-yl)furan-2-carboxamide], the IC50 stood at 4.8 ± 0.7 µM.

Regarding `O=C(c1ccc(Br)o1)N(C(=O)c1ccc(Br)o1)c1ccc(-c2ccc(-c3ncco3)nc2)cn1` [r201], the 50% inhibitory concentration (IC50) was 17 ± 1.5 µM.

On to `O=c1[nH]c(-c2ccc3c(c2)[nH]c2ccccc23)cs1` [r233], for which the IC50 worked out at 2.1 ± 0.7 µM.

For `Nc1ccc(-c2ccc(-c3cncs3)c(Cl)c2)cn1` [r235, 5-(3-cloro-4-(tiazol-5-il)fenil)piridin-2-ammina], the IC50 came to 21 ± 2.5 µM.

For the compound `c1cc(-c2ccc(-c3ccoc3)cc2)co1` [r236, 1,4-di(furan-3-yl)benzene], the IC50 worked out at 1.3 ± 0.4 µM.

In the case of `CN1CCN(C(=O)c2ccc(-c3ccc(-c4ccc(C(=O)N5CCN(C)CC5)o4)cc3)o2)CC1` [r237, (5-{4-[5-(4-Methyl-piperazine-1-carbonyl)-furan-2-yl]-phenyl}-furan-2-yl)-(4-methyl-piperazin-1-yl)-methasone], the IC50 is 31 ± 5.7 µM.

As for `O=C(O)c1ccc(-c2ccc(-c3ccc(C(=O)O)o3)cc2)o1` [r239, 5,5′-(1,4-phenylene)difuran-2-carboxylic acid], the IC50 is 20 ± 2.3 µM.

With `COc1ncc(-c2ccc(-c3cccnc3)cc2Cl)s1` [r262, 5-(2-cloro-4-(piridin-3-il)fenil)-2-metossitiazolo], the IC50 turned out to be 3.7 ± 0.5 µM.

In the next assay the target is T3, BaF3 cells transformed with NPM/ALK (Homo sapiens, UniProt Q9UM73).
T3 construct: fused on or other part: P06748 (Nucleophosmin)
T3 sequence (Q9UM73 whole entry, change not shown, the tested form may be a part): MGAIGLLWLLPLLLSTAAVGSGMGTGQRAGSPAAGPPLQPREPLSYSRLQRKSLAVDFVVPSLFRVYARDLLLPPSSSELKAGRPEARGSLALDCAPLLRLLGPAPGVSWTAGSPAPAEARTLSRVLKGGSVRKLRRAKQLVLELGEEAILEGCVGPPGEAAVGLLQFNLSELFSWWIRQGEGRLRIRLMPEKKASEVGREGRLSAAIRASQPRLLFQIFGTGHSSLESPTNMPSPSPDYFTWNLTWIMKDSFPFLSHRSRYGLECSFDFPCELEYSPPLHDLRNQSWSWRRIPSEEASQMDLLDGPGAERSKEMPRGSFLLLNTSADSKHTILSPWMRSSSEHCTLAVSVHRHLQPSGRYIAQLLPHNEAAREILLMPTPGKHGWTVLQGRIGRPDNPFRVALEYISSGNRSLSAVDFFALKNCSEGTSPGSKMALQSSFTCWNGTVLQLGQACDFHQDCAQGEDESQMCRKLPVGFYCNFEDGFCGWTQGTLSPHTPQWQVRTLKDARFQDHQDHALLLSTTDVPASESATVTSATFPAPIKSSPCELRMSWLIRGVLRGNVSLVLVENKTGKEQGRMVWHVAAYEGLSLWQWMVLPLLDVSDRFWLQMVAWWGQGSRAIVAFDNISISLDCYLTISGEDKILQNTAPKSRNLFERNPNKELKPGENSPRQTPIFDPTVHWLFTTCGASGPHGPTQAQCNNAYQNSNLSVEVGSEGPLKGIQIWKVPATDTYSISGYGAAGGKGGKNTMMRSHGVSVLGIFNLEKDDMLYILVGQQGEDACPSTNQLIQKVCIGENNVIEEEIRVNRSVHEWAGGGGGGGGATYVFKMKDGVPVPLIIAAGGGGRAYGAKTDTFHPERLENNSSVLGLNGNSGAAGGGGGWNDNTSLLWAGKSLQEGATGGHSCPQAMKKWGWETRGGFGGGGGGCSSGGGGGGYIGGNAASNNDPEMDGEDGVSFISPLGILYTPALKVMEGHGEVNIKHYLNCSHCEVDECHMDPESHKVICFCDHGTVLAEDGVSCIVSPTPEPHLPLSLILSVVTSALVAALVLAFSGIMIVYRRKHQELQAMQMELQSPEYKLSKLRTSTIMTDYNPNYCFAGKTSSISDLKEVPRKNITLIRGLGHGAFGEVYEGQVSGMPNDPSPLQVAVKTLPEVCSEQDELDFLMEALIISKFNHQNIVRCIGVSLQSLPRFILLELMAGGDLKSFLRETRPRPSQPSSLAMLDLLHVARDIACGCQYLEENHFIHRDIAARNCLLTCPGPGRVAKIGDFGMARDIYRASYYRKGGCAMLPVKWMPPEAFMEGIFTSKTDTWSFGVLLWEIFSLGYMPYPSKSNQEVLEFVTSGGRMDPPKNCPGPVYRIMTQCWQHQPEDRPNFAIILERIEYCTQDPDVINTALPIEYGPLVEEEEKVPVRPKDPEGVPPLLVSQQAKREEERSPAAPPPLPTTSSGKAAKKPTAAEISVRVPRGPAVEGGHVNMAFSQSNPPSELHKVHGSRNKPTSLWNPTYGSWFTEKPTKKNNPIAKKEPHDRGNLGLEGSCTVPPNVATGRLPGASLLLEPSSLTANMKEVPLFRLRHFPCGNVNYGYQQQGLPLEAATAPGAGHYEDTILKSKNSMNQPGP
Nature of the assay: Tritiated thymidine uptake cell proliferation assay. In kind it is cell-based. The following applies: read-out: IC50 values on the proliferation of BaF3 cells transformed with NPM/ALK; 72 h incubation, 3[H]-thymidine uptake. On the procedure:
Method: Tritiated Thymidine Uptake Cell Proliferation Assay
BaF3 cells, transformed with the oncogenic fusion protein NPM/ALK, were seeded in U-bottomed 96-well plates at 10 000 cells/well in a volume of 100 μL in supplemented medium. Serial dilutions of inhibitors were added to the appropriate wells and volumes adjusted to 200 μL. Controls were treated with the equivalent volume of vehicle, DMSO, alone. Plates were incubated at 37° C. for 72 h. ^3[H-]-thymidine (1 μCi/well) was added for the last 16 h of incubation. Cells were harvested on to glass filters and ^3[H]-thymidine incorporation was measured using a scintillation counter (1430 MicroBeta, Wallac, Turku, Finland).
For the compound `O=C1Nc2ccc(Br)cc2/C1=N/Nc1nc(-c2ccc(-c3ccccc3)cc2)cs1` [r49], the GI50 is 12 µM.

On to `O=C(N/N=C/c1c[nH]c2ccccc12)c1cc(-c2ccc(-c3ccccc3)cc2)[nH]n1` [r66], for which the GI50 came to 4.8 µM.

As for `Cc1csc(-c2ccc(-c3csnn3)cc2)n1` [r78], the GI50 came out at 7.6 µM.

Take `CC(C)(C)c1csc(-c2ccc(-c3csnn3)cc2)n1` [r79]: the GI50 was 33 µM.

For `CCOC(=O)c1csc(-c2ccc(-c3csnn3)cc2)n1` [r80], the GI50 turned out to be 31 µM.

On to `CN1CCN(Cc2ccc(C(=O)Nc3nc(-c4ccc5c(c4)Cc4ccccc4-5)cs3)cc2)CC1` [r89], for which the GI50 was determined as 36 µM.
